Experimental data from the CheMixHub viscosity set.
± gives the uncertainty stated by the source.

Experiment: xn = mol fraction of the nth substance listed

CCCC[N+](C)(CCCC)CCCC.N#C[N-]C#N + CC[n+]1ccn(C)c1.N#C[N-]C#N
viscosity (323.15 K, 101 kPa, x2 = 0.2114): 42.05 ± 1.7 mPa·s

CC(=O)OC(C)C + CCc1ccccc1
viscosity (303.15 K, 101 kPa, x1 = 0.1056): 0.582 ± 0.011 mPa·s
viscosity (303.15 K, 101 kPa, x1 = 0.2037): 0.567 ± 0.011 mPa·s
viscosity (303.15 K, 101 kPa, x1 = 0.3116): 0.551 ± 0.011 mPa·s
viscosity (303.15 K, 101 kPa, x1 = 0.4048): 0.538 ± 0.011 mPa·s
viscosity (303.15 K, 101 kPa, x1 = 0.5112): 0.523 ± 0.011 mPa·s
viscosity (303.15 K, 101 kPa, x1 = 0.6089): 0.51 ± 0.011 mPa·s
viscosity (303.15 K, 101 kPa, x1 = 0.7156): 0.496 ± 0.011 mPa·s
viscosity (303.15 K, 101 kPa, x1 = 0.811): 0.484 ± 0.011 mPa·s
viscosity (303.15 K, 101 kPa, x1 = 0.9403): 0.467 ± 0.011 mPa·s
viscosity (313.15 K, 101 kPa, x1 = 0.1056): 0.523 ± 0.011 mPa·s
viscosity (313.15 K, 101 kPa, x1 = 0.2037): 0.509 ± 0.011 mPa·s
viscosity (313.15 K, 101 kPa, x1 = 0.3116): 0.494 ± 0.011 mPa·s
viscosity (313.15 K, 101 kPa, x1 = 0.4048): 0.482 ± 0.011 mPa·s
viscosity (313.15 K, 101 kPa, x1 = 0.5112): 0.469 ± 0.011 mPa·s
viscosity (313.15 K, 101 kPa, x1 = 0.6089): 0.457 ± 0.011 mPa·s
viscosity (313.15 K, 101 kPa, x1 = 0.7156): 0.445 ± 0.011 mPa·s
viscosity (313.15 K, 101 kPa, x1 = 0.811): 0.434 ± 0.011 mPa·s
viscosity (313.15 K, 101 kPa, x1 = 0.9403): 0.42 ± 0.01 mPa·s

CC(=O)OCC(C)C + CCc1ccccc1
viscosity (303.15 K, 101 kPa, x1 = 0.0948): 0.596 ± 0.011 mPa·s
viscosity (303.15 K, 101 kPa, x1 = 0.1767): 0.597 ± 0.011 mPa·s
viscosity (303.15 K, 101 kPa, x1 = 0.2601): 0.599 ± 0.011 mPa·s
viscosity (303.15 K, 101 kPa, x1 = 0.3586): 0.602 ± 0.011 mPa·s
viscosity (303.15 K, 101 kPa, x1 = 0.4735): 0.606 ± 0.011 mPa·s
viscosity (303.15 K, 101 kPa, x1 = 0.5727): 0.61 ± 0.011 mPa·s
viscosity (303.15 K, 101 kPa, x1 = 0.7004): 0.616 ± 0.011 mPa·s
viscosity (303.15 K, 101 kPa, x1 = 0.7989): 0.623 ± 0.011 mPa·s
viscosity (303.15 K, 101 kPa, x1 = 0.8805): 0.63 ± 0.011 mPa·s
viscosity (303.15 K, 101 kPa, x1 = 0.9463): 0.635 ± 0.011 mPa·s
viscosity (313.15 K, 101 kPa, x1 = 0.0948): 0.527 ± 0.011 mPa·s
viscosity (313.15 K, 101 kPa, x1 = 0.1767): 0.528 ± 0.011 mPa·s
viscosity (313.15 K, 101 kPa, x1 = 0.2601): 0.529 ± 0.011 mPa·s
viscosity (313.15 K, 101 kPa, x1 = 0.3586): 0.53 ± 0.011 mPa·s
viscosity (313.15 K, 101 kPa, x1 = 0.4735): 0.534 ± 0.011 mPa·s
viscosity (313.15 K, 101 kPa, x1 = 0.5727): 0.539 ± 0.011 mPa·s
viscosity (313.15 K, 101 kPa, x1 = 0.7004): 0.545 ± 0.011 mPa·s
viscosity (313.15 K, 101 kPa, x1 = 0.7989): 0.552 ± 0.011 mPa·s
viscosity (313.15 K, 101 kPa, x1 = 0.8805): 0.559 ± 0.011 mPa·s
viscosity (313.15 K, 101 kPa, x1 = 0.9463): 0.569 ± 0.011 mPa·s

[Cl-].[Li+] + CN1CCCC1=O
viscosity (298.15 K, 101 kPa, x1 = 0.03756): 2.607 ± 0.021 mPa·s
viscosity (298.15 K, 101 kPa, x1 = 0.03819): 2.63 ± 0.021 mPa·s
viscosity (298.15 K, 101 kPa, x1 = 0.04156): 2.626 ± 0.021 mPa·s
viscosity (298.15 K, 101 kPa, x1 = 0.07132): 3.558 ± 0.027 mPa·s
viscosity (298.15 K, 101 kPa, x1 = 0.07175): 3.558 ± 0.027 mPa·s
viscosity (298.15 K, 101 kPa, x1 = 0.07229): 3.56 ± 0.027 mPa·s
viscosity (298.15 K, 101 kPa, x1 = 0.1038): 4.959 ± 0.037 mPa·s
viscosity (298.15 K, 101 kPa, x1 = 0.1042): 4.958 ± 0.037 mPa·s
viscosity (298.15 K, 101 kPa, x1 = 0.1044): 4.958 ± 0.037 mPa·s

CCCC(C)O (stereo not drawn) + CN(C)C=O
viscosity (298.15 K, 101 kPa, x2 = 0.109): 2.69 ± 0.06 mPa·s
viscosity (298.15 K, 101 kPa, x2 = 0.1534): 2.51 ± 0.06 mPa·s
viscosity (298.15 K, 101 kPa, x2 = 0.2404): 2.26 ± 0.05 mPa·s
viscosity (298.15 K, 101 kPa, x2 = 0.345): 2.01 ± 0.05 mPa·s
viscosity (298.15 K, 101 kPa, x2 = 0.4412): 1.82 ± 0.04 mPa·s
viscosity (298.15 K, 101 kPa, x2 = 0.5603): 1.59 ± 0.04 mPa·s
viscosity (298.15 K, 101 kPa, x2 = 0.6548): 1.41 ± 0.03 mPa·s
viscosity (298.15 K, 101 kPa, x2 = 0.7436): 1.25 ± 0.03 mPa·s
viscosity (298.15 K, 101 kPa, x2 = 0.8432): 1.07 ± 0.02 mPa·s
viscosity (298.15 K, 101 kPa, x2 = 0.9376): 0.91 ± 0.02 mPa·s
viscosity (303.15 K, 101 kPa, x2 = 0.109): 2.23 ± 0.05 mPa·s
viscosity (303.15 K, 101 kPa, x2 = 0.1534): 2.05 ± 0.05 mPa·s
viscosity (303.15 K, 101 kPa, x2 = 0.2404): 1.84 ± 0.04 mPa·s
viscosity (303.15 K, 101 kPa, x2 = 0.345): 1.65 ± 0.04 mPa·s
viscosity (303.15 K, 101 kPa, x2 = 0.4412): 1.51 ± 0.03 mPa·s
viscosity (303.15 K, 101 kPa, x2 = 0.5603): 1.33 ± 0.03 mPa·s
viscosity (303.15 K, 101 kPa, x2 = 0.6548): 1.21 ± 0.03 mPa·s
viscosity (303.15 K, 101 kPa, x2 = 0.7436): 1.08 ± 0.02 mPa·s
viscosity (303.15 K, 101 kPa, x2 = 0.8432): 0.96 ± 0.02 mPa·s
viscosity (303.15 K, 101 kPa, x2 = 0.9376): 0.84 ± 0.02 mPa·s
viscosity (308.15 K, 101 kPa, x2 = 0.109): 1.83 ± 0.04 mPa·s
viscosity (308.15 K, 101 kPa, x2 = 0.1534): 1.68 ± 0.04 mPa·s
viscosity (308.15 K, 101 kPa, x2 = 0.2404): 1.49 ± 0.03 mPa·s
viscosity (308.15 K, 101 kPa, x2 = 0.345): 1.35 ± 0.03 mPa·s
viscosity (308.15 K, 101 kPa, x2 = 0.4412): 1.24 ± 0.03 mPa·s
viscosity (308.15 K, 101 kPa, x2 = 0.5603): 1.13 ± 0.03 mPa·s
viscosity (308.15 K, 101 kPa, x2 = 0.6548): 1.04 ± 0.02 mPa·s
viscosity (308.15 K, 101 kPa, x2 = 0.7436): 0.95 ± 0.02 mPa·s
viscosity (308.15 K, 101 kPa, x2 = 0.8432): 0.86 ± 0.02 mPa·s
viscosity (308.15 K, 101 kPa, x2 = 0.9376): 0.78 ± 0.02 mPa·s
viscosity (313.15 K, 101 kPa, x2 = 0.109): 1.54 ± 0.03 mPa·s
viscosity (313.15 K, 101 kPa, x2 = 0.1534): 1.4 ± 0.1 mPa·s
viscosity (313.15 K, 101 kPa, x2 = 0.2404): 1.24 ± 0.03 mPa·s
viscosity (313.15 K, 101 kPa, x2 = 0.345): 1.13 ± 0.03 mPa·s
viscosity (313.15 K, 101 kPa, x2 = 0.4412): 1.05 ± 0.02 mPa·s
viscosity (313.15 K, 101 kPa, x2 = 0.5603): 0.97 ± 0.02 mPa·s
viscosity (313.15 K, 101 kPa, x2 = 0.6548): 0.91 ± 0.02 mPa·s
viscosity (313.15 K, 101 kPa, x2 = 0.7436): 0.86 ± 0.02 mPa·s
viscosity (313.15 K, 101 kPa, x2 = 0.8432): 0.79 ± 0.02 mPa·s
viscosity (313.15 K, 101 kPa, x2 = 0.9376): 0.72 ± 0.02 mPa·s

CCCCNCCCC + CNC(C)=O
viscosity (308.15 K, 101 kPa, x1 = 0.0121): 3.267 ± 0.025 mPa·s
viscosity (308.15 K, 101 kPa, x2 = 0.0611): 0.7366 ± 0.011 mPa·s
viscosity (308.15 K, 101 kPa, x2 = 0.2864): 1.116 ± 0.013 mPa·s
viscosity (308.15 K, 101 kPa, x2 = 0.4546): 1.522 ± 0.015 mPa·s
viscosity (308.15 K, 101 kPa, x2 = 0.5799): 1.89 ± 0.017 mPa·s
viscosity (308.15 K, 101 kPa, x2 = 0.6904): 2.25 ± 0.019 mPa·s
viscosity (308.15 K, 101 kPa, x2 = 0.7866): 2.584 ± 0.021 mPa·s
viscosity (308.15 K, 101 kPa, x2 = 0.8542): 2.828 ± 0.023 mPa·s
viscosity (308.15 K, 101 kPa, x2 = 0.9262): 3.06 ± 0.024 mPa·s

CCCC(=O)O + CNC=O
viscosity (303.15 K, 100 kPa, x2 = 0.1187): 1.415 mPa·s
viscosity (303.15 K, 100 kPa, x2 = 0.1967): 1.434 mPa·s
viscosity (303.15 K, 100 kPa, x2 = 0.2806): 1.455 mPa·s
viscosity (303.15 K, 100 kPa, x2 = 0.3708): 1.476 mPa·s
viscosity (303.15 K, 100 kPa, x2 = 0.5026): 1.504 mPa·s
viscosity (303.15 K, 100 kPa, x2 = 0.6111): 1.524 mPa·s
viscosity (303.15 K, 100 kPa, x2 = 0.6888): 1.537 mPa·s
viscosity (303.15 K, 100 kPa, x2 = 0.7711): 1.55 mPa·s
viscosity (303.15 K, 100 kPa, x2 = 0.9041): 1.57 mPa·s
viscosity (308.15 K, 100 kPa, x2 = 0.1187): 1.275 mPa·s
viscosity (308.15 K, 100 kPa, x2 = 0.1967): 1.296 mPa·s
viscosity (308.15 K, 100 kPa, x2 = 0.2806): 1.317 mPa·s
viscosity (308.15 K, 100 kPa, x2 = 0.3708): 1.34 mPa·s
viscosity (308.15 K, 100 kPa, x2 = 0.5026): 1.37 mPa·s
viscosity (308.15 K, 100 kPa, x2 = 0.6111): 1.393 mPa·s
viscosity (308.15 K, 100 kPa, x2 = 0.6888): 1.408 mPa·s
viscosity (308.15 K, 100 kPa, x2 = 0.7711): 1.423 mPa·s
viscosity (308.15 K, 100 kPa, x2 = 0.9041): 1.447 mPa·s
viscosity (313.15 K, 100 kPa, x2 = 0.1187): 1.136 mPa·s
viscosity (313.15 K, 100 kPa, x2 = 0.1967): 1.159 mPa·s
viscosity (313.15 K, 100 kPa, x2 = 0.2806): 1.183 mPa·s
viscosity (313.15 K, 100 kPa, x2 = 0.3708): 1.208 mPa·s
viscosity (313.15 K, 100 kPa, x2 = 0.5026): 1.242 mPa·s
viscosity (313.15 K, 100 kPa, x2 = 0.6111): 1.269 mPa·s
viscosity (313.15 K, 100 kPa, x2 = 0.6888): 1.286 mPa·s
viscosity (313.15 K, 100 kPa, x2 = 0.7711): 1.305 mPa·s
viscosity (313.15 K, 100 kPa, x2 = 0.9041): 1.334 mPa·s
viscosity (318.15 K, 100 kPa, x2 = 0.1187): 0.9979 mPa·s
viscosity (318.15 K, 100 kPa, x2 = 0.1967): 1.024 mPa·s
viscosity (318.15 K, 100 kPa, x2 = 0.2806): 1.052 mPa·s
viscosity (318.15 K, 100 kPa, x2 = 0.3708): 1.08 mPa·s
viscosity (318.15 K, 100 kPa, x2 = 0.5026): 1.12 mPa·s
viscosity (318.15 K, 100 kPa, x2 = 0.6111): 1.152 mPa·s
viscosity (318.15 K, 100 kPa, x2 = 0.6888): 1.174 mPa·s
viscosity (318.15 K, 100 kPa, x2 = 0.7711): 1.197 mPa·s
viscosity (318.15 K, 100 kPa, x2 = 0.9041): 1.233 mPa·s
